Assay results reported in US20110142842A1, “POLYPEPTIDES” (Medinnova AS, priority 2007, published 2011).
“And” between values parts separate entries of the source, which are not always exact repeats. Equal values may be shown once. Read-outs that look alike come from different tables or passages of the source.

Columns and labels:
[1] = test system: autologous responder cells (monocyte-depleted PBMC) from HLA-A*0201-negative donors; experiment: Induction of pentamer positive CD8+ T cells by peptide-pulsed HLA-A*0201-transfected moDC (Example 8); assay type: cell-based, human; settings: for Day 12 % pent+/CD8+: day 12 of co-culture; for Day 19 % pent+/CD8+: day 19 of co-culture, after restimulation; for Day 12 Donors / Day 19 Donors: donors with positive response / donors tested
Experimental: MoDC transfected with HLA-A*0201 mRNA were harvested 18 hours after transfection and resuspended in 1-2 ml of serum-free DC-medium containing 50 μg/ml peptide, such as MART-1 or peptide #19. The cells were incubated at 37° C., 5% CO2 for 4 hours, then washed once in serum-free RPMI.
Stimulator and responder cells were seeded at a stimulator to responder (S:R) ratio of 1:10, with 3.0×10^6 responders per well in serum-free DC medium containing 10 ng/ml IL-7 (PeproTech EC Ltd.), 50 pg/ml IL-12 (PeproTech EC Ltd.), and PPD at 1 μg/ml.
On day 12 the responder cells were harvested and analyzed for the presence of pentamer positive cells. The cells were either sorted or restimulated.
Restimulation was done with autologous EBV-LCL transfected with HLA-A*0201 mRNA 12-24 hours prior to stimulation, harvested and resuspended in 1-2 ml of serum-free X-Vivo 20 (Cambrex) containing the same peptide as added on day 0 at 20 μg/ml, and incubated for 4 hours at 37° C., 5% CO2. Following incubation, the EBV-LCL were washed once in serum-free RPMI.
From day 12 of co-culture with stimulator cells, the responders were harvested, counted and analyzed for the presence of pentamer positive cells weekly. The responder cells were either restimulated, as described above, or the pentamer positive cells were sorted and expanded as described below.
Monocyte-derived dendritic cells (moDC) from HLA-A*0201-negative donors were transfected with HLA-A*0201 mRNA after maturation. 18-24 hours post-transfection the cells were pulsed with the peptides indicated in Table 2 for four hours, before co-culturing them with autologous responder cells (monocyte-depleted PBMC). On day 12 and day 19 and in some cases at day 26 of co-culture, the cells were harvested, stained with relevant peptide-MHC-pentamer and analyzed by flow cytometry. The percentage of pentamer positive cells was calculated by dividing the number of pentamer positive cells by the number of CD8+ cells. On day 12 and day 19, the cells were restimulated with autologous EBV-cells that were transfected with HLA-A*0201 mRNA and loaded for four hours with the relevant peptides indicated in Table 2.

[2] = test system: CD8+ T cells from HLA-A*0201 negative donors; experiment: Induction of allo-restricted pentamer+ T cells by peptide-pulsed A2-moDC (Example 9); assay type: cell-based, human; settings: three donors respectively, 19 days of culture
Experimental: Mature moDCs were harvested 18 hours after transfection with HLA-A*0201 mRNA, pulsed with 50 μg/ml MART-1 peptide or CD339-17 peptide for 4 hours, washed and co-cultured with thawed, non-adherent cells (see above) at a ratio of 1:10 in CellGro DC medium in the presence of 10 ng/ml IL-7 (PeproTech EC Ltd.) and 50 pg/ml IL-12 (PeproTech EC Ltd.), with the addition of 10 ng/ml IL-7 on day 7. Cells were harvested day 12 and analyzed for the presence of pentamer^+ cells. The co-cultures stimulated with the CD339-17 peptide were re-stimulated on day 12 with HLA-A*0201 transfected autologous EBV-LCL for an additional 7 days before harvest.
(§1) Co-cultured cells were harvested and stained with A2/MART-1 pentamer or A2/CD33 pentamer, fluorotag and anti-CD8 according to the manufacturers' instructions. Sorting was performed by flow cytometry (FACS Aria Cell sorter, BD Biosciences, San Jose, Calif.) or by magnetic beads to a purity of >98%. Pentamer^+ cells labelled with fluorotag conjugated to PE were isolated using MACS Anti-PE MicroBeads (Miltenyi Biotec, Bergisch Gladbach, Germany) followed by separation over two subsequent MACS MS Columns (Miltenyi Biotec).

HLA-A*0201 = HLA-A*0201 (Homo sapiens, UniProt P04439, D140Y/D185E/D98H/E176V/E277Q/G131W/G231S/I119V/I121R/I166T/I218V/L300P/L318F/N151K/N90K/P208A/P217A/Q86G/Q94H/R138H/R169H/T345S); experiment: REVEAL MHC molecule binding assay (ProImmune)
[3] = test system: CD8+ T cells from HLA-A*0201 negative donors; experiment: Induction of A2/CD20 pentamer+ T cells by HLA-A*0201-transfected peptide-pulsed moDC (Example 10); assay type: cell-based, human
Experimental: Mature moDCs were harvested 18 hours after transfection with HLA-A*0201 mRNA (HLA-A*0201 negative donors), or left untransfected (HLA-A*0201 positive donors), pulsed with 50 μg/ml peptide for 4 hours, irradiated (25Gy), washed and co-cultured with thawed, autologous, non-adherent cells at a ratio of 1:10 in CeliGro DC medium in the presence of 10 ng/ml IL-7 (PeproTech EC Ltd.), 50 pg/ml IL-12 (PeproTech EC Ltd.) and 1 μg/ml purified protein derivative-1 (gift from Prof. L. Sollid's lab, Rikshospitalet, Oslo) with the addition of 10 ng/ml IL-7 on day 7. Cells were analyzed for the presence of pentamer^+ cells, harvested and re-stimulated on day 12 with HLA-A*0201-transfected, peptide-pulsed autologous EBV-LCL. Cells were co-cultured in X-vivo 20 (Lonza, Verviers, Belgium) with 5% pooled human serum, 10 U/ml IL-2 (R&D systems, Minneapolis, Minn.) was added on day 14 and the cells harvested for cell sorting day 19.
as §1, with “Harvested” for “Co-cultured”, “were” for “were harvested and”, “A2/CD20” for “A2/MART-1 pentamer or A2/CD33”, “anti-PE” for “Anti-PE”

[4] = test system: myelo-monocytic leukemia cell line THP-1; experiment: IFN-γ production and CD107a/b mobilization, peptide-loaded targets; assay type: cell-based, human; settings: THP-1 loaded with peptide and washed, p=0.016, n=4
[5] = day 26 per footnote c, printed in Day 19 column

| Substance | Day 12 % pent+/CD8+ [1] [%] | Day 19 % pent+/CD8+ [1] | Day 12 Donors [1] | Day 19 Donors [1] | further results |
| --- | --- | --- | --- | --- | --- |
| ALAVISFLL (homo sapiens) [Peptide 114, from CD7] | 0 | 0% | 0/2 | 0/2 |  |
| ALPAALAVI (homo sapiens) [Peptide 127, from CD7] | 0 | 0.04% | 0/2 | 1/2 |  |
| ALYDKTKRI (homo sapiens) [Peptide 115] | 0 | 0% | 0/2 | 0/2 |  |
| CD339-17: peptide derived from the CD33 antigen, amino acid sequence 9-17, HLA-A*0201-binding candidate (LLWAGALAM; UniProt P20138 9-17, looked up, fragment) |  |  |  |  | frequencies of pentamer+ cells [2]: 0.13% and 0.32% and 0.55% |
| FLDCQIHRV (homo sapiens) [Peptide 7, from CD127] | 0 | 0% | 0/2 | 0/2 |  |
| FLLLTISLL (homo sapiens) [Peptide 88, from CD52] | 0 | 0.08% and 0% | 0/2 and 0/3 | 2/3 and 0/2 |  |
| FLYGVILTV (homo sapiens) [Peptide 131] |  |  |  |  | % Pass/fail control (HLA-A*0201): 257.0% |
| FVANAIIHL (homo sapiens) [Peptide 111, from CD52] | 0 | 0% | 0/2 | 0/2 |  |
| ILFAFVSSV (homo sapiens) [Peptide 25, from FLT3] | 0 | 0% | 1/2 | 0/2 |  |
| KIVEWDWKI (homo sapiens) [Peptide 109, from CD48] | 0.03 | 0.05% | 1/2 | 1/2 |  |
| KLGGDLLRA (homo sapiens) [Peptide 129, from CD18] | 0 | 0% | 0/2 | 0/2 |  |
| KLMSPKLYV (homo sapiens) [Peptide 55, from CD19] | 0.03 | 0.05% | 1/2 | 1/2 |  |
| LIQPFMFRL (homo sapiens) [Peptide 84, from MPO] | 0 | 0% | 0/5 | 0/4 |  |
| LLFLTPMEV (homo sapiens) [Peptide 108, from CD19] | 0.03 | 0.09% | 1/2 | 1/2 |  |
| LLLPLLLAL (homo sapiens) [Peptide 28, from CD7] | 0.01 | 0.19% | 1/2 | 1/2 |  |
| LLLTISLLV (homo sapiens) [Peptide 81, from CD52] | 0 | 0.03% | 0/2 | 1/2 |  |
| LLQRPGLQL (homo sapiens) [Peptide 126, from CD64] | 0.01 | 0.06% | 1/2 | 1/2 |  |
| LLWAGALAM (homo sapiens) [Peptide 86, from CD33] | 0.14 | 0.35% | 2/4 | 4/6 |  |
| LMGTLIAKV (homo sapiens) [Peptide 83, from HA-1] | 0 | 0% | 0/2 | 0/2 |  |
| LVAPRFLEV (homo sapiens) [Peptide 85, from CD50] | 0.13 | 0.30% | 1/4 | 2/5 |  |
| RLYQFLLDL (homo sapiens) [Peptide 66, from PU.1] | 0 | 0.03% | 0/2 | 1/2 |  |
| SLFLGILSV (homo sapiens) [Peptide 19, from CD20] |  |  |  |  | donors with positive cells ([3]; day 12): 5 of 6; median frequency of pentamer positive cells of CD8+ T cells ([3]; day 12): 0.19%; range of frequency of pentamer positive cells of CD8+ T cells ([3]; day 12): 0-0.31%; donors with pentamer positive cells ([3]; day 19): 6/6; median frequency of pentamer positive cells of CD8+ T cells ([3]; day 19, after re-stimulation): 0.57%; range of frequency of pentamer positive cells of CD8+ T cells ([3]; day 19, after re-stimulation): 0.12-2.79%; peptide concentration at which increase in frequency of activated T cells reached statistical significance [4]: 100 nM |
| SLWRRPFNV (homo sapiens) [Peptide 22, from MPO] | 0 | 0.09% | 0/2 | 1/2 |  |
| SMFHVTLKI (homo sapiens) [Peptide 128, from CLL-1] |  |  |  |  | % pent+/CD8+ (results d26) [1, 5]: 0.08%; Donors (results d26) [1, 5]: 1/3 |
| SMLDDLRNV (homo sapiens) [Peptide 24, from CD18] | 0 | 0.05% | 0/2 | 1/2 |  |
| SVDPRIANV [139] (SLDPRIANV; homo sapiens) [Peptide 139, modified peptide, MPO] |  |  |  |  | % Pass/fail control (HLA-A*0201; level of binding relative to pass/fail control binder designated 100%): 231.5% |
| VLWHWLLRT (homo sapiens) [Peptide 105, from CD19] | 0 | 0.19% | 0/2 | 4/6 |  |
| YLGYTVTWL (homo sapiens) [Peptide 93, from CD11a] | 0.02 | 0.06% | 1/2 | 2/2 |  |
| YLHVALDLL (homo sapiens) [Peptide 107, from MPO] | 0 | 0.01% | 0/2 | 1/2 |  |
